Source: the supplement of paper PMC10883282
Structures can show the parent of a compound that is named as a salt.

Key:
Experiment in all cases: relative viability vs DMSO control (72 h) (fraction); higher = more viable cells
HT1080 = system: HT1080
In short: (§1)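 Relative viability is percent growth read by ATPLite and averaged over up to triplicate wells. Sarcoma cells were seeded in 384-well plates to reach 80–90% confluence and given 2.5 µl of serially diluted compound after 24 h, from source plates of 10 mM to 0.0002 mM. Incubation lasted 72 h at 37 °C, 5% CO2, with 0.1% DMSO vehicle and a 5 µM positive control, and the data were rescaled so 1 equals full and 0 equals none.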

G401 = system: G401
In short: as §1

SW872 = system: SW872
In short: as §1

KHOS-NP = system: KHOS-NP
In short: as §1

HS729 = system: HS729
In short: as §1

VA-ES-BJ = system: VA-ES-BJ
In short: as §1

MES-SA = system: MES-SA
In short: as §1

SYO-1 = system: SYO-1
In short: as §1

SW1353 = system: SW1353
In short: as §1

SK-LMS-1 = system: SK-LMS-1
In short: as §1

A204 = system: A204
In short: as §1

SW684 = system: SW684
In short: as §1

C=C1C[C@@H]2CC[C@@]34C[C@H]5O[C@H]6[C@@H](O3)[C@H]3O[C@H](CC[C@@H]3O[C@H]6[C@H]5O4)CC(=O)C[C@@H]3[C@@H](OC)[C@@H](C[C@H](O)CN)O[C@H]3C[C@H]3O[C@@H](CC[C@@H]1O2)C[C@@H](C)C3=C [Eribulin Mesylate]
Details	relative viability
A204, 1.37 pM	1.12
A204, 4.1 pM	1.12
A204, 12.3 pM	1.09
A204, 37 pM	0.68
A204, 0.00011 µM	0.596
A204, 0.00033 µM	0.475
A204, 0.001 µM	0.414
A204, 0.003 µM	0.329
A204, 0.009 µM	0.2412
A204, 0.027 µM	0.224
A204, 460 fM	1.11
G401, 1.37 pM	1.08
G401, 4.1 pM	1.06
G401, 12.3 pM	1.06
G401, 37 pM	0.814
G401, 0.00011 µM	0.736
G401, 0.00033 µM	0.604
G401, 0.001 µM	0.513
G401, 0.003 µM	0.452
G401, 0.009 µM	0.417
G401, 0.027 µM	0.366
G401, 460 fM	1.05
HS729, 1.37 pM	1.04
HS729, 4.1 pM	0.987
HS729, 12.3 pM	0.965
HS729, 37 pM	0.874
HS729, 0.00011 µM	0.835
HS729, 0.00033 µM	0.756
HS729, 0.001 µM	0.6663
HS729, 0.003 µM	0.583
HS729, 0.009 µM	0.519
HS729, 0.027 µM	0.48
HS729, 460 fM	1.08
HT1080, 1.37 pM	1.1
HT1080, 4.1 pM	1.08
HT1080, 12.3 pM	1
HT1080, 37 pM	0.959
HT1080, 0.00011 µM	0.779
HT1080, 0.00033 µM	0.178
HT1080, 0.001 µM	0.08945
HT1080, 0.003 µM	0.06
HT1080, 0.009 µM	0.0428
HT1080, 0.027 µM	0.043
HT1080, 460 fM	1.054
KHOS-NP, 1.37 pM	1.11
KHOS-NP, 4.1 pM	1.119
KHOS-NP, 12.3 pM	1.113
KHOS-NP, 37 pM	1.11
KHOS-NP, 0.00011 µM	1.1
KHOS-NP, 0.00033 µM	1.05
KHOS-NP, 0.001 µM	0.922
KHOS-NP, 0.003 µM	0.669
KHOS-NP, 0.009 µM	0.479
KHOS-NP, 0.027 µM	0.438
KHOS-NP, 460 fM	1.1
MES-SA, 1.37 pM	1.01
MES-SA, 4.1 pM	0.996
MES-SA, 12.3 pM	0.973
MES-SA, 37 pM	0.425
MES-SA, 0.00011 µM	0.472
MES-SA, 0.00033 µM	0.311
MES-SA, 0.001 µM	0.254
MES-SA, 0.003 µM	0.178
MES-SA, 0.009 µM	0.122
MES-SA, 0.027 µM	0.109
MES-SA, 460 fM	0.996
SK-LMS-1, 1.37 pM	0.971
SK-LMS-1, 4.1 pM	0.952
SK-LMS-1, 12.3 pM	0.909
SK-LMS-1, 37 pM	0.819
SK-LMS-1, 0.00011 µM	0.708
SK-LMS-1, 0.00033 µM	0.52
SK-LMS-1, 0.001 µM	0.482
SK-LMS-1, 0.003 µM	0.392
SK-LMS-1, 0.009 µM	0.359
SK-LMS-1, 0.027 µM	0.308
SK-LMS-1, 460 fM	0.996
SW684, 1.37 pM	1.16
SW684, 4.1 pM	1.13
SW684, 12.3 pM	1.11
SW684, 37 pM	0.994
SW684, 0.00011 µM	1
SW684, 0.00033 µM	0.865
SW684, 0.001 µM	0.806
SW684, 0.003 µM	0.812
SW684, 0.009 µM	0.822
SW684, 0.027 µM	0.828
SW684, 460 fM	1.15
SW872, 1.37 pM	1.08
SW872, 4.1 pM	1.09
SW872, 12.3 pM	1.06
SW872, 37 pM	0.946
SW872, 0.00011 µM	0.869
SW872, 0.00033 µM	0.8125
SW872, 0.001 µM	0.686
SW872, 0.003 µM	0.567
SW872, 0.009 µM	0.4921
SW872, 0.027 µM	0.429
SW872, 460 fM	1.1
SW1353, 1.37 pM	1.13
SW1353, 4.1 pM	1.08
SW1353, 12.3 pM	1.06
SW1353, 37 pM	0.975
SW1353, 0.00011 µM	0.935
SW1353, 0.00033 µM	0.702
SW1353, 0.001 µM	0.56
SW1353, 0.003 µM	0.497
SW1353, 0.009 µM	0.474
SW1353, 0.027 µM	0.441
SW1353, 460 fM	1.16
SYO-1, 1.37 pM	0.915
SYO-1, 4.1 pM	0.709
SYO-1, 12.3 pM	0.513
SYO-1, 37 pM	0.388
SYO-1, 0.00011 µM	0.323
SYO-1, 0.00033 µM	0.319
SYO-1, 0.001 µM	0.312
SYO-1, 0.003 µM	0.354
SYO-1, 0.009 µM	0.365
SYO-1, 0.027 µM	0.345
SYO-1, 460 fM	1.01
VA-ES-BJ, 1.37 pM	1.06
VA-ES-BJ, 4.1 pM	1
VA-ES-BJ, 12.3 pM	0.901
VA-ES-BJ, 37 pM	0.72
VA-ES-BJ, 0.00011 µM	0.474
VA-ES-BJ, 0.00033 µM	0.391
VA-ES-BJ, 0.001 µM	0.437
VA-ES-BJ, 0.003 µM	0.359
VA-ES-BJ, 0.009 µM	0.295
VA-ES-BJ, 0.027 µM	0.244
VA-ES-BJ, 460 fM	1.08
